Measurements published in patent US9770026B2, “Substituted pyrimidine compound and uses thereof” (Shenyang Sinochem Agrochemicals R&D Co., Ltd., priority 2012, dated 2017).

Legend:
corn rust = assay: protectant activity in vivo against corn rust
armyworm = assay: bioactivity test against armyworm, airbrush spray; format: in vivo; details: mortality after 72 h
carmine spider mite = assay: bioactivity test against carmine spider mite, airbrush spray; format: in vivo; details: for Insecticidal activity against carmine spider mite (% ): contrastive test
Outline: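 Broadbean seedlings infested with adult mites were sprayed with compound (acetone/methanol stock diluted in 0.1% Tween 80 water) by airbrush at 0.7 kg/cm^2, 0.5 ml. Three replicates were run. Mortality was scored after 72 hrs.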

[1] = test system: Green peach aphids (Myzus Persicae Sulzer); assay: bioactivity test against green peach aphid, airbrush foliar spray; format: in vivo; details: for control (test results against green peach aphid): death rate after 48 hrs; for Insecticidal activity against peach aphid (%): contrastive test
Outline: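 Aphids (15-30 per cabbage leaf disc) on moist filter paper were airbrush-sprayed at 10 psi, 0.5 mL, with compound from acetone:methanol (1:1) diluted in water with 0.1% tween 80. Held at 25±1 C, 60±5% RH; survivors counted after 48 hrs to give death rates.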

cucumber downy mildew = assay: protectant activity in vivo against cucumber downy mildew
wheat powdery mildew = assay: protectant activity in vivo against wheat powdery mildew
Diamond back moth = assay: insecticidal activity against diamond back moth, airbrush spray; format: in vivo; details: mortality after 72 hrs
Outline: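 Airbrush leaf-disc spray test: both faces of 2 cm cabbage discs received 0.5 ml of test solution at 0.7 kg/cm^2. Solutions were made in acetone:methanol (1:1) and brought to concentration with 0.1% Tween 80 in water. Ten second-instar larvae per disc, triplicates, were held at 25° C and 60˜70% R.H., with mortality recorded at 72 hrs.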

[2] = 600 ppm, mortality after 72 hrs
[3] = 100 ppm, mortality after 72 hrs

Row | Structure (SMILES) | protectant activity against corn rust in vivo (corn rust; 100 ppm) [%] | protectant activity against corn rust in vivo (corn rust; 400 ppm) [%] | control (test results against armyworm) (armyworm; 600 ppm) [%] | control against carmine spider mite (carmine spider mite; [2]) [%] | control (test results against green peach aphid) ([1]; 10 ppm) [%] | control (test results against green peach aphid) ([1]; 100 ppm) [%] | control (test results against green peach aphid) ([1]; 600 ppm) [%] | protectant activity against cucumber downy mildew in vivo (cucumber downy mildew; 100 ppm) [%] | protectant activity against cucumber downy mildew in vivo (cucumber downy mildew; 400 ppm) [%] | protectant activity against wheat powdery mildew in vivo (wheat powdery mildew; 400 ppm) [%] | control (test results against diamond back moth) (Diamond back moth; 600 ppm) [%] | Insecticidal activity against carmine spider mite (% ) (carmine spider mite; 10 mg/L) [%] | Insecticidal activity against carmine spider mite (% ) (carmine spider mite; 100 mg/L) [%] | Insecticidal activity against carmine spider mite (% ) (carmine spider mite; 600 mg/L) [%] | control against carmine spider mite (carmine spider mite; [3]) [%] | control (test results against green peach aphid) ([1]; 5 ppm) [%] | protectant activity against wheat powdery mildew in vivo (wheat powdery mildew; 100 ppm) [%] | control (test results against diamond back moth) (Diamond back moth; 100 ppm) [%] | further results
1 | Cc1ncnc(NCCc2ccc(Oc3ccc(C(F)(F)F)cn3)cc2)c1Cl [Compound I-6732] | 100 | 100 | 100 | 100 | 100 | 100 | 100 | 100 | 100 | 100 | 100 | – | – | – | – | – | – | – | pest or weed control at 6.25 ppm (corn rust; Zea mays, 168 h, read-out: protectant activity against corn rust in vivo, 6.25 ppm): 80 to 99%; pest or weed control at 100 ppm (carmine spider mite; Tetranychus cinnabarinus, 72 h, 100 ppm, mortality after 72 hrs): 100%; protectant activity against cucumber downy mildew in vivo (cucumber downy mildew; 25 ppm): 100%
2 | CCc1ncnc(NCCc2ccc(Oc3ccc(C(F)(F)F)cn3)cc2)c1Cl [Compound I-6740] | 100 | 100 | 100 | 100 | 100 | 100 | 100 | – | – | 100 | 100 | 85 | 100 | 100 | 100 | 100 | 100 | 100 | control (test results against armyworm) (armyworm; 100 ppm): 100%; pest or weed control at 10 ppm (carmine spider mite; Tetranychus cinnabarinus, 72 h, 10 ppm, mortality after 72 hrs): 80 to 99%; pest or weed control at 100 ppm (cucumber downy mildew; Cucumis sativus, 168 h, read-out: protectant activity against cucumber downy mildew in vivo, 100 ppm): 100%; pest or weed control at 400 ppm (cucumber downy mildew; Cucumis sativus, 168 h, read-out: protectant activity against cucumber downy mildew in vivo, 400 ppm): 100%; protectant activity against wheat powdery mildew in vivo (wheat powdery mildew; 25 ppm): 100%
3 | CCc1ncnc(NCCc2ccc(Oc3ccc(C(F)(F)F)cn3)cc2)c1Cl [Compound I-6765] | 100 | 100 | 100 | 100 | 100 | 100 | 100 | 100 | 100 | 100 | 100 | 100 | 100 | 100 | 100 | 100 | 100 | 100 | pest or weed control at 100 ppm (armyworm; 72 h, 100 ppm): 100%; control against carmine spider mite (carmine spider mite; 10 ppm, mortality after 72 hrs): 100%; Insecticidal activity against peach aphid (%) ([1]; 1.25 mg/L): 84%; Insecticidal activity against peach aphid (%) ([1]; 2.5 mg/L): 100%; Insecticidal activity against peach aphid (%) ([1]; 5 mg/L): 100%; Insecticidal activity against peach aphid (%) ([1]; 10 mg/L): 100%; Insecticidal activity against peach aphid (%) ([1]; 100 mg/L): 100%; Insecticidal activity against peach aphid (%) ([1]; 600 mg/L): 100%; control (test results against green peach aphid) ([1]; 2.5 ppm): 100%; protectant activity against cucumber downy mildew in vivo (cucumber downy mildew; 50 ppm): 100%; pest or weed control at 6.25 ppm (cucumber downy mildew; Cucumis sativus, 168 h, read-out: protectant activity against cucumber downy mildew in vivo, 6.25 ppm): 80 to 99%; pest or weed control at 12.5 ppm (cucumber downy mildew; Cucumis sativus, 168 h, read-out: protectant activity against cucumber downy mildew in vivo, 12.5 ppm): 80 to 99%; pest or weed control at 25 ppm (cucumber downy mildew; Cucumis sativus, 168 h, read-out: protectant activity against cucumber downy mildew in vivo, 25 ppm): 100%; protectant activity against wheat powdery mildew in vivo (wheat powdery mildew; 6.25 ppm): 100%; pest or weed control at 6.25 µg/mL (wheat powdery mildew; Triticum aestivum, 168 h, read-out: control effect against wheat powdery mildew (%), 6.25 mg/L, protectant activity): 100%; pest or weed control at 25 µg/mL (wheat powdery mildew; Triticum aestivum, 168 h, read-out: control effect against wheat powdery mildew (%), 25 mg/L, protectant activity): 100%; pest or weed control at 100 µg/mL (wheat powdery mildew; Triticum aestivum, 168 h, read-out: control effect against wheat powdery mildew (%), 100 mg/L, protectant activity): 100%; pest or weed control at 400 µg/mL (wheat powdery mildew; Triticum aestivum, 168 h, read-out: control effect against wheat powdery mildew (%), 400 mg/L, protectant activity): 100%; pest or weed control at 25 ppm (wheat powdery mildew; Triticum aestivum, 168 h, read-out: protectant activity against wheat powdery mildew in vivo, 25 ppm): 100%
